From patent US11530244B2, “Cyclic polypeptides for PCSK9 inhibition” (priority 2018, dated 2022)
Read-outs that look alike come from different tables or passages of the source. Starred links: 1 amine or outer side, 2 acyl side, 3 side chain; linkers in the order of their positions; H or OH if unused. Positions of bridges follow the written chain, without caps; N, C: chain ends. Non-standard residues stand in square brackets, D forms with d. Residues, ends and D or L forms follow the SMILES beside them. ξ: configuration not given here. NHCH2C6H4(p)CH2CH2NH = c1cc(CN[*:1])ccc1CCN[*:2]; X58 = O=C([C@@H]1[C@H](OCC=[*:3])CCN1[*:1])[*:2]; Ala(imidazol-2-yl) = N[C@@H](Cc1ncc[nH]1)C(=O)O; Arg(NO2) = N=C(NCCC[C@H](N)C(=O)O)N[N+](=O)[O-]; Trp(5-F) = N[C@@H](Cc1c[nH]c2ccc(F)cc12)C(=O)O; X55 = O=C(CCCCCC(=O)[*:1])NCc1ccc(CCN[*:2])cc1; X3 = O=C(CCSCc1cc(F)cc(CSCCN[*:1])c1)[*:2]; X33 = CC(C)C(N[*:1])c1ncc(C(=O)[*:2])[nH]1; X57 = O=C([C@@H](CCCCC=[*:3])N[*:1])[*:2]; Lys(Me3) = C[N+](C)(C)CCCC[C@H](N)C(=O)O; X12 = O=C([C@H](CCCCC=[*:3])N[*:1])[*:2]; X4 = O=C(CCSCc1cccc(CSCCN[*:1])c1)[*:2]; X64 = C[C@H](N[*:1])c1ncc(C(=O)[*:2])s1; mXylylene = c1cc(C[*:1])cc(C[*:2])c1; Lys(Me2) = CN(C)CCCC[C@H](N)C(=O)O; ξAla(CF3) = NC(CC(F)(F)F)C(=O)O; Lys(Me) = CNCCCC[C@H](N)C(=O)O; αMeP = C[C@@]1(C(=O)O)CCCN1; Dap = NC[C@H](N)C(=O)O; AEEA = NCCOCCOCC(=O)O; Mpa = O=C(O)CCS

Target: PCSK9 (Homo sapiens (Human), UniProt Q8NBP7)
Assay: PCSK9 Alexa FRET Standard assay (displacement of AlexaFluor647 tagged cyclic peptide Reagent A)
Format: binding
Method in brief: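 TR-FRET displacement: 0.5 nM biotinylated PCSK9 with 1.25 nM Strep-Eu and 20 nM AlexaFluor-tagged cyclic peptide (final) in 50 mM HEPES pH 7.4, 0.15 M NaCl, 5 mM CaCl2, 0.01% BSA, 0.01% P20, ≥2 h at room temperature. IC50 from sigmoidal fit, converted to Ki via peptide KD; falling Eu counts flagged false positives.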

[1] = PCSK9 Alexa FRET Standard assay, 0.5 nM PCSK9, 20 nM AF cyclic peptide Reagent A, read-out: IC50

Chain of PCSK9 (Q8NBP7 153-692): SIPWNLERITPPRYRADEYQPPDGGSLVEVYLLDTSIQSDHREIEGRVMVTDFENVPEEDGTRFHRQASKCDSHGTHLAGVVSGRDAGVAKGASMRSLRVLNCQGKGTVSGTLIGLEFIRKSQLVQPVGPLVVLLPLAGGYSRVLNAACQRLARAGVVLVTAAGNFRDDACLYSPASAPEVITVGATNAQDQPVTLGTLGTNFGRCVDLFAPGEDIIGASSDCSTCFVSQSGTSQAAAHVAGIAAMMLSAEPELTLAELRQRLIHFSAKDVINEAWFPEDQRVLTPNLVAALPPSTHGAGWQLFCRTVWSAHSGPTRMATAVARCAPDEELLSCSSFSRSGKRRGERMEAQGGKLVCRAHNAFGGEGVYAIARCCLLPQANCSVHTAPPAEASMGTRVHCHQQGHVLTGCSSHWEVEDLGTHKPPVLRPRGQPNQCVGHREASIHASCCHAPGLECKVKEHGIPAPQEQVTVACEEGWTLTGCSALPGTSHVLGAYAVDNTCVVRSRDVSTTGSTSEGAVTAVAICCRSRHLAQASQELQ

Structure (SMILES) | IC50 [1] | IC50 (IC50)
COc1ccc(C[C@@H]2NC(=O)[C@H](Cc3ncc[nH]3)NC(=O)[C@H](CC(=O)O)NC(=O)[C@H](Cc3c[nH]c4ccc(F)cc34)NC(=O)[C@H](Cc3c[nH]c4ccc(F)cc34)NC(=O)[C@@H](C)NC(=O)[C@H](CCC/N=C(\N)N[N+](=O)[O-])NC(=O)CCSCc3cccc(c3)CSCCNC(=O)[C@]3(C)CCCN3C2=O)cc1 [Compound 445] (cyclo([Arg(NO2)][dA][Trp(5-F)][Trp(5-F)]D[Ala(imidazol-2-yl)]Y(Me)[αMeP][X4])) |  | 21000 to 50000 nM
COc1ccc(C[C@@H]2NC(=O)[C@H](Cc3ncc[nH]3)NC(=O)[C@H](CC(=O)O)NC(=O)[C@H](Cc3c[nH]c4ccc(F)cc34)NC(=O)[C@H](Cc3c[nH]c4ccc(F)cc34)NC(=O)[C@@H](C)NC(=O)[C@H](CCC(N)=O)NC(=O)CCSCc3cccc(c3)CSCCNC(=O)[C@]3(C)CCCN3C2=O)cc1 [Compound 446] (cyclo(D[Ala(imidazol-2-yl)]Y(Me)[αMeP][X4]Q[dA][Trp(5-F)][Trp(5-F)])) | 1000 to 12100 nM | 
COc1ccc(C[C@@H]2NC(=O)[C@H](Cc3cnc[nH]3)NC(=O)[C@H](CC(=O)O)NC(=O)[C@H](Cc3c[nH]c4ccc(F)cc34)NC(=O)[C@H](Cc3c[nH]c4ccc(F)cc34)NC(=O)[C@@H](C)NC(=O)[C@H](NC(C)=O)CCC(=O)NCc3ccc(cc3)CCNC(=O)C[C@@H](C(N)=O)NC(=O)[C@]3(C)CCCN3C2=O)cc1 [Compound 451] (Ac-[dE][dA][Trp(5-F)][Trp(5-F)]DHY(Me)[αMeP]D-NH2; linker 1-9 via NHCH2C6H4(p)CH2CH2NH) | 100 to 1000 nM | 
COc1ccc(C[C@@H]2NC(=O)[C@H](Cc3cnc[nH]3)NC(=O)[C@H](CC(=O)O)NC(=O)[C@H](Cc3c[nH]c4ccc(F)cc34)NC(=O)[C@H](Cc3c[nH]c4ccc(F)cc34)NC(=O)[C@@H](C)NC(=O)[C@H](CCCC[N+](C)(C)C)NC(=O)CCSCc3cccc(c3)CSCCNC(=O)[C@]3(C)CCCN3C2=O)cc1 [Compound 461] (cyclo(DHY(Me)[αMeP][X4][Lys(Me3)][dA][Trp(5-F)][Trp(5-F)])) | 21000 to 50000 nM | 
CNCCCC[C@@H]1NC(=O)CCSCc2cc(F)cc(c2)CSCCNC(=O)[C@]2(C)CCCN2C(=O)[C@H](Cc2ccc(OC)cc2)NC(=O)[C@H](Cc2ncc[nH]2)NC(=O)[C@H](CC(=O)O)NC(=O)[C@H](Cc2c[nH]c3ccc(F)cc23)NC(=O)[C@H](Cc2c[nH]c3ccc(F)cc23)NC(=O)[C@@H](C)NC1=O [Compound 468] (cyclo(D[Ala(imidazol-2-yl)]Y(Me)[αMeP][X3][Lys(Me)][dA][Trp(5-F)][Trp(5-F)])) | 1000 to 12100 nM | 
COc1ccc(C[C@@H]2NC(=O)[C@H](Cc3cnc[nH]3)NC(=O)[C@H](CC(=O)O)NC(=O)[C@H](Cc3c[nH]c4ccc(F)cc34)NC(=O)[C@H](Cc3c[nH]c4ccc(F)cc34)NC(=O)[C@H](C)NC(=O)CCCCCC(=O)NCc3ccc(cc3)CCNC(=O)[C@]3(C)CCCN3C2=O)cc1 [Compound 470] (A[Trp(5-F)][Trp(5-F)]DHY(Me)[αMeP]; linker N-C via X55) | 0.11 to 100 nM | 
CC(C)C[C@H]1C(=O)N[C@@H](Cc2ccc(O)cc2)C(=O)N2CCC[C@@]2(C)C(=O)N[C@H](C(N)=O)CSCc2cccc(c2)CSCCC(=O)N[C@@H](CCCCN)C(=O)NCC(=O)N[C@@H](Cc2c[nH]c3ccc(F)cc23)C(=O)N[C@@H](Cc2c[nH]c3ccc(F)cc23)C(=O)N[C@H]2CCN1C2=O [Compound 472] | 0.11 to 100 nM | 
COc1ccc(C[C@@H]2NC(=O)[C@@H]3CCCC(=O)N[C@@H]4C[C@H](C(=O)N3)N(C4)C(=O)[C@H](Cc3c[nH]c4ccc(F)cc34)NC(=O)[C@H](Cc3c[nH]c4ccc(F)cc34)NC(=O)[C@@H](C)NC(=O)[C@H](CCCCN)NC(=O)CCSCc3cccc(c3)CSCCNC(=O)[C@]3(C)CCCN3C2=O)cc1 [Compound 522] | 0.11 to 100 nM | 
COc1ccc(C[C@@H]2NC(=O)[C@H]([C@H](C)O)NC(=O)[C@@H]3CCCc4cn(nn4)CCCC[C@H](NC(=O)[C@@H](C)NC(=O)[C@H](CCCCN)NC(=O)CCSCc4cccc(c4)CSCCNC(=O)[C@]4(C)CCCN4C2=O)C(=O)N[C@@H](Cc2c[nH]c4ccc(F)cc24)C(=O)N3)cc1 [Compound 526] | 0.11 to 100 nM | 

More lines, main results first:

IC50 [1] | Structure (SMILES) | IC50 (IC50)
21000 to 50000 nM | COc1ccc(C[C@@H]2NC(=O)[C@H](Cc3ncc[nH]3)NC(=O)[C@H](CC(=O)O)NC(=O)[C@H](Cc3c[nH]c4ccc(F)cc34)NC(=O)[C@H](Cc3c[nH]c4ccc(F)cc34)NC(=O)[C@@H](C)NC(=O)C(CC(F)(F)F)NC(=O)CCSCc3cccc(c3)CSCCNC(=O)[C@]3(C)CCCN3C2=O)cc1 (stereo partly drawn) [Compound 444] (cyclo(D[Ala(imidazol-2-yl)]Y(Me)[αMeP][X4][ξAla(CF3)][dA][Trp(5-F)][Trp(5-F)])) | 
100 to 1000 nM | COc1ccc(C[C@@H]2NC(=O)[C@H](Cc3ncc[nH]3)NC(=O)[C@H](CC(=O)O)NC(=O)[C@H](Cc3c[nH]c4ccc(F)cc34)NC(=O)[C@H](Cc3c[nH]c4ccc(F)cc34)NC(=O)[C@@H](C)NC(=O)[C@H](CNC(=O)COCCOCCN)NC(=O)CCSCc3cccc(c3)CSCCNC(=O)[C@]3(C)CCCN3C2=O)cc1 [Compound 447] (cyclo(D[Ala(imidazol-2-yl)]Y(Me)[αMeP][X4][Dap](AEEA)[dA][Trp(5-F)][Trp(5-F)])) | 
0.11 to 100 nM | COc1ccc(C[C@@H]2NC(=O)[C@H](Cc3ncc[nH]3)NC(=O)[C@H](CC(=O)O)NC(=O)[C@H](Cc3c[nH]c4ccc(F)cc34)NC(=O)[C@H](Cc3c[nH]c4ccc(F)cc34)NC(=O)[C@@H](C)NC(=O)[C@H](CNC(=O)COCCOCCN)NC(=O)CCSCc3cccc(c3)CSCCNC(=O)[C@]3(C)CCCN3C2=O)cc1 [Compound 448] (cyclo(D[Ala(imidazol-2-yl)]Y(Me)[αMeP][X4][Dap](AEEA)[dA][Trp(5-F)][Trp(5-F)])) | 
100 to 1000 nM | CC(C)C1NC(=O)CCSCc2cccc(c2)CSC[C@@H](C(N)=O)NC(=O)[C@]2(C)CCCN2C(=O)[C@H](Cc2ccc(O)cc2)NC(=O)[C@H](Cc2c[nH]cn2)NC(=O)[C@H](CC(=O)O)NC(=O)[C@H](Cc2c[nH]c3ccc(F)cc23)NC(=O)[C@H](Cc2c[nH]c3ccc(F)cc23)NC(=O)c2cnc1[nH]2 (stereo partly drawn) [Compound 449] ([Mpa][X33][Trp(5-F)][Trp(5-F)]DHY[αMeP]C-NH2; linker 1-9 via mXylylene) | 
100 to 1000 nM | CC(C)C1NC(=O)CCSCc2cccc(c2)CSC[C@@H](C(N)=O)NC(=O)[C@]2(C)CCCN2C(=O)[C@H](Cc2ccc(O)cc2)NC(=O)[C@H](Cc2c[nH]cn2)NC(=O)[C@H](CC(=O)O)NC(=O)[C@H](Cc2c[nH]c3ccc(F)cc23)NC(=O)[C@H](Cc2c[nH]c3ccc(F)cc23)NC(=O)c2cnc1[nH]2 (stereo partly drawn) [Compound 450] ([Mpa][X33][Trp(5-F)][Trp(5-F)]DHY[αMeP]C-NH2; linker 1-9 via mXylylene) | 
0.11 to 100 nM | C[C@@H]1NC(=O)[C@H](Cc2c[nH]c3ccc(F)cc23)NC(=O)[C@H](Cc2c[nH]c3ccc(F)cc23)NC(=O)[C@@H](C)NC(=O)[C@H](CCCCN)NC(=O)CCSCc2cccc(c2)CSC[C@@H](C(N)=O)NC(=O)[C@]2(C)CCCN2C(=O)[C@H](Cc2ccc(O)cc2)NC(=O)C2=CN=C1S2 [Compound 460] ([Mpa]K[dA][Trp(5-F)][Trp(5-F)][X64]Y[αMeP]C-NH2; linker 1-9 via mXylylene) | 
1000 to 12100 nM | COc1ccc(C[C@@H]2NC(=O)[C@H](Cc3ncc[nH]3)NC(=O)[C@H](CC(=O)O)NC(=O)[C@H](Cc3c[nH]c4ccc(F)cc34)NC(=O)[C@H](Cc3c[nH]c4ccc(F)cc34)NC(=O)[C@@H](C)NC(=O)[C@H](CCCC[N+](C)(C)C)NC(=O)CCSCc3cc(F)cc(c3)CSCCNC(=O)[C@]3(C)CCCN3C2=O)cc1 [Compound 462] (cyclo(D[Ala(imidazol-2-yl)]Y(Me)[αMeP][X3][Lys(Me3)][dA][Trp(5-F)][Trp(5-F)])) | 
100 to 1000 nM | COc1ccc(C[C@@H]2NC(=O)[C@H](Cc3ncc[nH]3)NC(=O)[C@H](CC(=O)O)NC(=O)[C@H](Cc3c[nH]c4ccc(F)cc34)NC(=O)[C@H](Cc3c[nH]c4ccc(F)cc34)NC(=O)[C@@H](C)NC(=O)[C@H](CCCCN(C)C)NC(=O)CCSCc3cccc(c3)CSCCNC(=O)[C@]3(C)CCCN3C2=O)cc1 [Compound 463] (cyclo(D[Ala(imidazol-2-yl)]Y(Me)[αMeP][X4][Lys(Me2)][dA][Trp(5-F)][Trp(5-F)])) | 
21000 to 50000 nM | COc1ccc(C[C@@H]2NC(=O)[C@H](Cc3ncc[nH]3)NC(=O)[C@H](CC(=O)O)NC(=O)[C@H](Cc3c[nH]c4ccc(F)cc34)NC(=O)[C@H](Cc3c[nH]c4ccc(F)cc34)NC(=O)[C@@H](C)NC(=O)[C@H](CCCCN(C)C)NC(=O)CCSCc3cccc(c3)CSCCNC(=O)[C@]3(C)CCCN3C2=O)cc1 [Compound 464] (cyclo(D[Ala(imidazol-2-yl)]Y(Me)[αMeP][X4][Lys(Me2)][dA][Trp(5-F)][Trp(5-F)])) | 
1000 to 12100 nM | COc1ccc(C[C@@H]2NC(=O)[C@H](Cc3ncc[nH]3)NC(=O)[C@H](CC(=O)O)NC(=O)[C@H](Cc3c[nH]c4ccc(F)cc34)NC(=O)[C@H](Cc3c[nH]c4ccc(F)cc34)NC(=O)[C@@H](C)NC(=O)[C@H](CCCCN(C)C)NC(=O)CCSCc3cc(F)cc(c3)CSCCNC(=O)[C@]3(C)CCCN3C2=O)cc1 [Compound 465] (cyclo(D[Ala(imidazol-2-yl)]Y(Me)[αMeP][X3][Lys(Me2)][dA][Trp(5-F)][Trp(5-F)])) | 
21000 to 50000 nM | CC(=O)N[C@H]1CCCC/C=C/CO[C@@H]2CCN(C(=O)[C@H](Cc3ccc(O)cc3)NC(=O)[C@H](Cc3cnc[nH]3)NC(=O)[C@H](CC(=O)O)NC(=O)[C@H](Cc3c[nH]c4ccc(F)cc34)NC(=O)[C@H](Cc3c[nH]c4ccc(F)cc34)NC(=O)CNC(=O)[C@H](CCCCN)NC1=O)[C@@H]2C(N)=O [Compound 469] (Ac-[X12]KG[Trp(5-F)][Trp(5-F)]DHY[X58]-NH2; staple (E) 1-9) | 
0.11 to 100 nM | CC(=O)N[C@@H]1CCCC/C=C\CO[C@@H]2CCN(C(=O)[C@H](Cc3ccc(O)cc3)NC(=O)[C@H](Cc3cnc[nH]3)NC(=O)[C@H](CC(=O)O)NC(=O)[C@H](Cc3c[nH]c4ccc(F)cc34)NC(=O)[C@H](Cc3c[nH]c4ccc(F)cc34)NC(=O)CNC1=O)[C@@H]2C(N)=O [Compound 471] (Ac-[X57]G[Trp(5-F)][Trp(5-F)]DHY[X58]-NH2; staple (Z) 1-8) | 
